Here are results for 19 compounds from ChEMBL document CHEMBL3286226, “Discovery of thienopyrimidine-based FLT3 inhibitors from the structural modification of known IKKβ inhibitors” (Bioorg Med Chem Lett, 2014).

Test [1] relates to RAW264.7. Kind of test: cells. As to conditions: Mus musculus; call rule not given here.
The subject of test [2] is RAW264.7. The experiment in a line: cells. Conditions: Mus musculus. The source holds these as a separate data set.
Description: (§1) Antiinflammatory activity against mouse RAW264.7 cells assessed as reduction of LPS-induced TNF-alpha production
In test [3] the test system is RAW264.7.
Description: as §1
Test [4] has as its target Tyrosine-protein kinase JAK3 (Homo sapiens) (UniProt P52333). The experiment in a line: Inhibition of human JAK3 assessed as residual activity at 10 uM relative to control.
For test [5], the target named is MAP kinase-activated protein kinase 2 (Homo sapiens) (UniProt P49137). The experiment in a line: Inhibition of human MAPKAP-K2 assessed as residual activity at 10 uM relative to control.
The target of test [6] is Mitogen-activated protein kinase 14 (Homo sapiens) (UniProt Q16539). The experiment in a line: Inhibition of human SAPK2alpha assessed as residual activity at 10 uM relative to control.
In test [7] the target is Tyrosine-protein kinase Lck (Homo sapiens) (UniProt P06239). Kind of test: Inhibition of human Lck assessed as residual activity at 10 uM relative to control.
Test [8] deals with Mitogen-activated protein kinase 13 (Homo sapiens) (UniProt O15264). The experiment in a line: Inhibition of human SAPK4 assessed as residual activity at 10 uM relative to control.
Test [9] has as its target Rho-associated protein kinase 2 (Homo sapiens) (UniProt O75116). Kind of test: Inhibition of human ROCK-2 assessed as residual activity at 10 uM relative to control.
Test [10] has as its target Inhibitor of nuclear factor kappa-B kinase subunit beta (Homo sapiens) (UniProt O14920). The experiment in a line: Inhibition of human IKKbeta assessed as residual activity at 1 uM relative to control.
Test [11] addresses Mitogen-activated protein kinase 8 (Homo sapiens) (UniProt P45983). The experiment in a line: Inhibition of human JNK1alpha1 assessed as residual activity at 10 uM relative to control.
Test [12] is filed under the species Homo sapiens. Kind of test: Inhibition of human PKA assessed as residual activity at 10 uM relative to control.
Test [13] addresses Tyrosine-protein kinase JAK1 (Homo sapiens) (UniProt P23458). Kind of test: Inhibition of human JAK1 assessed as residual activity at 10 uM relative to control.
For test [14], the target named is Mitogen-activated protein kinase 12 (Homo sapiens) (UniProt P53778). The experiment in a line: Inhibition of human SAPK3 assessed as residual activity at 10 uM relative to control.
Test [15] deals with Mitogen-activated protein kinase 11 (Homo sapiens) (UniProt Q15759). The experiment in a line: Inhibition of human SAPK2beta assessed as residual activity at 10 uM relative to control.
Test [16] has as its target Tyrosine-protein kinase Lyn (Homo sapiens) (UniProt P07948). The experiment in a line: Inhibition of human Lyn assessed as residual activity at 10 uM relative to control.
For test [17], the target named is Non-receptor tyrosine-protein kinase TYK2 (Homo sapiens) (UniProt P29597). The experiment in a line: Inhibition of human TYK2 assessed as residual activity at 10 uM relative to control.
Test [18] concerns the target Tyrosine-protein kinase BTK (Homo sapiens) (UniProt Q06187). The experiment in a line: Inhibition of human BTK assessed as residual activity at 10 uM relative to control.
Test [19] deals with Mitogen-activated protein kinase 9 (Homo sapiens) (UniProt P45984). Kind of test: Inhibition of human JNK2alpha2 assessed as residual activity at 10 uM relative to control.
The target of test [20] is T1, Receptor-type tyrosine-protein kinase FLT3 (Homo sapiens, UniProt P36888).
T1 sequence (P36888 whole entry): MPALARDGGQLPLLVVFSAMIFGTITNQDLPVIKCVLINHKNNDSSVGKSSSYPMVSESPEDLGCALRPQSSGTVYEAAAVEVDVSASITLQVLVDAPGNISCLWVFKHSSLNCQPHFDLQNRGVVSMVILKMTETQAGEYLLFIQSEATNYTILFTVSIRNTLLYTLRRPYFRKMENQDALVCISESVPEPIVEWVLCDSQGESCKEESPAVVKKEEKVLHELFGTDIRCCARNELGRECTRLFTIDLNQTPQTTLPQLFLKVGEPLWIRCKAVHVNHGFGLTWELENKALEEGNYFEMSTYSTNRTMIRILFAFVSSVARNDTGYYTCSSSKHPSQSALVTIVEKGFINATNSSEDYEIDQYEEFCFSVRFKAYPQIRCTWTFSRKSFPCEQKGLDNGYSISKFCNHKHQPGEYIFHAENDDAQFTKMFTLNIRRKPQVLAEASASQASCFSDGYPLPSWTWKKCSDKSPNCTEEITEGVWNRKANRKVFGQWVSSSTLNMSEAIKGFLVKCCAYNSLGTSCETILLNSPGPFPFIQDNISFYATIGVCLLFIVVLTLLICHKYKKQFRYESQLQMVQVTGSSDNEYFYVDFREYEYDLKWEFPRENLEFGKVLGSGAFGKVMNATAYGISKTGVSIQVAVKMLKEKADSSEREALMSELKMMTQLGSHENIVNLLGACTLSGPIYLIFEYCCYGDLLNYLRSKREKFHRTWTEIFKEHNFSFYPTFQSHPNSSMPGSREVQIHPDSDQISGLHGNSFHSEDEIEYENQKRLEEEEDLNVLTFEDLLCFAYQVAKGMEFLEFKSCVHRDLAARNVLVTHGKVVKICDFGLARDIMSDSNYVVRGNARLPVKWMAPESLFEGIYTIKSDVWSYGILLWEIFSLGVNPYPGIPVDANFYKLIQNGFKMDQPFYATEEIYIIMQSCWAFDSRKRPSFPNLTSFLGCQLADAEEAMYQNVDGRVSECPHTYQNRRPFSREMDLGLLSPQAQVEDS
Description: Inhibition of FLT3 kinase (unknown origin)

The target in test [21] is Ribosomal protein S6 kinase alpha-5 (Homo sapiens) (UniProt O75582). The experiment in a line: Inhibition of human MSK1 assessed as residual activity at 10 uM relative to control.
The target in test [22] is Dual specificity mitogen-activated protein kinase kinase 4 (Mus musculus) (UniProt P47809). Kind of test: Inhibition of mouse MKK4 assessed as residual activity at 10 uM relative to control.
Test [23] has as its target Inhibitor of nuclear factor kappa-B kinase subunit alpha (Homo sapiens) (UniProt O15111). Kind of test: Inhibition of human IKKalpha assessed as residual activity at 10 uM relative to control.
Test [24] addresses Dual specificity mitogen-activated protein kinase kinase 6 (Homo sapiens) (UniProt P52564). Kind of test: Inhibition of human MKK6 assessed as residual activity at 10 uM relative to control.
Test [25] addresses Dual specificity mitogen-activated protein kinase kinase 7 (Homo sapiens) (UniProt O14733). The experiment in a line: Inhibition of human MKK7beta assessed as residual activity at 10 uM relative to control.
Test [26] has as its target Receptor-type tyrosine-protein kinase FLT3 (Homo sapiens) (UniProt P36888). Kind of test: Inhibition of human Flt3 assessed as residual activity at 10 uM relative to control.
Test [27] addresses T2, Inhibitor of nuclear factor kappa-B kinase subunit beta (Homo sapiens, UniProt O14920).
T2 sequence (O14920 whole entry): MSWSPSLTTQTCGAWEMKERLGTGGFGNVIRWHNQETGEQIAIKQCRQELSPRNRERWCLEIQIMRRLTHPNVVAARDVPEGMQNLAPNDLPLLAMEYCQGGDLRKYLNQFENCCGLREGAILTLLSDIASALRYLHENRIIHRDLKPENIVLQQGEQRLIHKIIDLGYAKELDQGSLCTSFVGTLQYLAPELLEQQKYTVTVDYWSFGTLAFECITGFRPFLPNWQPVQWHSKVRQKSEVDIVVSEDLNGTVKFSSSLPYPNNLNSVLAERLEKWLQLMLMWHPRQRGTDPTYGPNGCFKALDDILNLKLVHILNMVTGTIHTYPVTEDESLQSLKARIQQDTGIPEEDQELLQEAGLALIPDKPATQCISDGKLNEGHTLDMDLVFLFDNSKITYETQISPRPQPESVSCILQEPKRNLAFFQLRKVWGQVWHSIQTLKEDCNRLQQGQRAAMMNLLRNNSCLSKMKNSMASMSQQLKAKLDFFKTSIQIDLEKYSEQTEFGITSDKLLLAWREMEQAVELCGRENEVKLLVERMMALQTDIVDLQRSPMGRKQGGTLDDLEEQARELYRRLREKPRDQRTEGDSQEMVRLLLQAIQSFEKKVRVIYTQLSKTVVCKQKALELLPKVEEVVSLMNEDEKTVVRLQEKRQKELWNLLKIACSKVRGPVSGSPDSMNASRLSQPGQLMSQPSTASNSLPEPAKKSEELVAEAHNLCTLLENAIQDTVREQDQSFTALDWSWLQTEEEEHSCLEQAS
Description: Inhibition of IKKbeta kinase (unknown origin) by Radioisotope system

Test [28] has as its target T2, Inhibitor of nuclear factor kappa-B kinase subunit beta. This is another data set of the same source.
Description: Inhibition of IKKbeta kinase (unknown origin) by Lance ULight system

Inhibitor of nuclear factor kappa-B kinase subunit alpha (Homo sapiens), sequence (O15111 whole entry): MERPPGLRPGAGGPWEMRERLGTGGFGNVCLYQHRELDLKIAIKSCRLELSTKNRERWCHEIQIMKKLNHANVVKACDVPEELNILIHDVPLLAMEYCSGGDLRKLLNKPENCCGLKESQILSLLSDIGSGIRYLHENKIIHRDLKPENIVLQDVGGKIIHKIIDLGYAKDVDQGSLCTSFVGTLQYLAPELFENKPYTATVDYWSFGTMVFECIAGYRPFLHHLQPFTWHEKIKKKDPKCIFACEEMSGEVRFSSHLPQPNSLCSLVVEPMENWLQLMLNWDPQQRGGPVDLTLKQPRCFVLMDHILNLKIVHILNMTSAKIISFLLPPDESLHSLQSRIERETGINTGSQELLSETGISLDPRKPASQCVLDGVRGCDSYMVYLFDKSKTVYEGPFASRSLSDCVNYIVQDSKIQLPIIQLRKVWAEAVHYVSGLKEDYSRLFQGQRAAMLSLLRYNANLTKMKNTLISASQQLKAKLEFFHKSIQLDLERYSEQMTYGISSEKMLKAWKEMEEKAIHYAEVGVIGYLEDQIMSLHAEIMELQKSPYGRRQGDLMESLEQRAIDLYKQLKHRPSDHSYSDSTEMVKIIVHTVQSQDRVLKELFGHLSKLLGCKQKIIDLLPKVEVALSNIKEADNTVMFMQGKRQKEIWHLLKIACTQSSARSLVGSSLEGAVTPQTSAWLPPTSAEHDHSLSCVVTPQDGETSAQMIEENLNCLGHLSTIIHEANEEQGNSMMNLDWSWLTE
Rho-associated protein kinase 2 (Homo sapiens), sequence (O75116 whole entry, looked up): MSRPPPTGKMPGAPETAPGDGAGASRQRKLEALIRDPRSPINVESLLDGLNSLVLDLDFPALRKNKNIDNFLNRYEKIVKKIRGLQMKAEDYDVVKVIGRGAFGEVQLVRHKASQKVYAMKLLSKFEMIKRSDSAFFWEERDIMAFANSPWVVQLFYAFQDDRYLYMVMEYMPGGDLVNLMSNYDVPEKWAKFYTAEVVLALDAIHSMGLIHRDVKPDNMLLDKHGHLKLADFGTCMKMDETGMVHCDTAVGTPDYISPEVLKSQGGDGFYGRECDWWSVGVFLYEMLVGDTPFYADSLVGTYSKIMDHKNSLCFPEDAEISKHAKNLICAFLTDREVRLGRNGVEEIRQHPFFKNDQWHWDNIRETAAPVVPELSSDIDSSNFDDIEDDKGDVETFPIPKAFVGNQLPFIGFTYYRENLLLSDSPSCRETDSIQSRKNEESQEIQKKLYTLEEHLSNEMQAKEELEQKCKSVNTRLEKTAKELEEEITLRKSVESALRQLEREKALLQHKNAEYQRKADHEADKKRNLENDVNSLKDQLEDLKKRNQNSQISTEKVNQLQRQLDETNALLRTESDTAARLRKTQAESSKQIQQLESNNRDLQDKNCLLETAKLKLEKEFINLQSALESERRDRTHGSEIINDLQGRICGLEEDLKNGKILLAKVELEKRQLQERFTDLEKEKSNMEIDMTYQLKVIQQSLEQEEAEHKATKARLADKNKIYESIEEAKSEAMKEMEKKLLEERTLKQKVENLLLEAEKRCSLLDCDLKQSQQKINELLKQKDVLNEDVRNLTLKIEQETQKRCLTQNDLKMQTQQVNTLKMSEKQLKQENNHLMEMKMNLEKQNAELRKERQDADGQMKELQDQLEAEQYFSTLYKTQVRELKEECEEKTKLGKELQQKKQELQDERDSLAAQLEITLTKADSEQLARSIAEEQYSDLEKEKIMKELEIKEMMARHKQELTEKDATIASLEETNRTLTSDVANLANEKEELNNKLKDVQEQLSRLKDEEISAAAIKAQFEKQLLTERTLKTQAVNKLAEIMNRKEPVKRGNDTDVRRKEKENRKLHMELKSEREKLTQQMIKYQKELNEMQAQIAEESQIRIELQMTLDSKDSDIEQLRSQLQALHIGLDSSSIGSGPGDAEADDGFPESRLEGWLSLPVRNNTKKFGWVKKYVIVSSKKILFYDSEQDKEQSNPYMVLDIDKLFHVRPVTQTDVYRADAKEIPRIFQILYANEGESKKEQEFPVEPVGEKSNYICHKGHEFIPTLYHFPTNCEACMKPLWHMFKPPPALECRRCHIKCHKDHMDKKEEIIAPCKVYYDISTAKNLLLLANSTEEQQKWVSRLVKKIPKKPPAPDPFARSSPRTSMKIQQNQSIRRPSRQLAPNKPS
Tyrosine-protein kinase BTK (Homo sapiens), sequence (Q06187 whole entry): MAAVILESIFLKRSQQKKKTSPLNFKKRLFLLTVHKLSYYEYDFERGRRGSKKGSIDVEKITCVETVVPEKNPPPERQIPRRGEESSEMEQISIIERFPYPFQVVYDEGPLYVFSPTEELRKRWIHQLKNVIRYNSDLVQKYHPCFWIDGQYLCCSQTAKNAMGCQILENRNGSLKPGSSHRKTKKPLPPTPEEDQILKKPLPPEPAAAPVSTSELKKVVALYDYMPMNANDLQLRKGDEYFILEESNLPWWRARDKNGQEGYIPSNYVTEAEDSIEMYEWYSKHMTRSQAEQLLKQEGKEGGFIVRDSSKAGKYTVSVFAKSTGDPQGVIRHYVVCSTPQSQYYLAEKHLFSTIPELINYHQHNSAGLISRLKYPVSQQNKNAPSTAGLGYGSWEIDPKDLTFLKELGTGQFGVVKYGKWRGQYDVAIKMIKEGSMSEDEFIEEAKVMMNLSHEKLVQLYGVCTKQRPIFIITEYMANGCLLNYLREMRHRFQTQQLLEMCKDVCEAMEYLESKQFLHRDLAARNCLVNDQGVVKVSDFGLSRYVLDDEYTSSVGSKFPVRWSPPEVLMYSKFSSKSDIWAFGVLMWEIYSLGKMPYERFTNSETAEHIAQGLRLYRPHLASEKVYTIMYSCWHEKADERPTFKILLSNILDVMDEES
Tyrosine-protein kinase Lck (Homo sapiens), sequence (P06239 2-509 limits assumed): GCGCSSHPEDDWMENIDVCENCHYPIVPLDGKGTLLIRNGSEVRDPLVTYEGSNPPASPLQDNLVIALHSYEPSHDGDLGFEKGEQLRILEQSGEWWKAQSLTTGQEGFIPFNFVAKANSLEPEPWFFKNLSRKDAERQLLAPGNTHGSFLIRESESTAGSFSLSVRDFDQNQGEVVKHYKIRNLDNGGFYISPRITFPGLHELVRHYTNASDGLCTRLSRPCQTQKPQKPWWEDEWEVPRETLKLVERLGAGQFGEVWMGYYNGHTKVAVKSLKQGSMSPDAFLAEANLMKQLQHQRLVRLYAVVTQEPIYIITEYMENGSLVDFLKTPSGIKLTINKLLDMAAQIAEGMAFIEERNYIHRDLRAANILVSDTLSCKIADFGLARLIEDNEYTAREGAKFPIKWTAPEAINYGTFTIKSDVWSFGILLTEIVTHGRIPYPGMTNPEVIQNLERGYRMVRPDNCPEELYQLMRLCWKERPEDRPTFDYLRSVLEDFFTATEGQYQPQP
Tyrosine-protein kinase JAK3 (Homo sapiens), sequence (P52333 whole entry): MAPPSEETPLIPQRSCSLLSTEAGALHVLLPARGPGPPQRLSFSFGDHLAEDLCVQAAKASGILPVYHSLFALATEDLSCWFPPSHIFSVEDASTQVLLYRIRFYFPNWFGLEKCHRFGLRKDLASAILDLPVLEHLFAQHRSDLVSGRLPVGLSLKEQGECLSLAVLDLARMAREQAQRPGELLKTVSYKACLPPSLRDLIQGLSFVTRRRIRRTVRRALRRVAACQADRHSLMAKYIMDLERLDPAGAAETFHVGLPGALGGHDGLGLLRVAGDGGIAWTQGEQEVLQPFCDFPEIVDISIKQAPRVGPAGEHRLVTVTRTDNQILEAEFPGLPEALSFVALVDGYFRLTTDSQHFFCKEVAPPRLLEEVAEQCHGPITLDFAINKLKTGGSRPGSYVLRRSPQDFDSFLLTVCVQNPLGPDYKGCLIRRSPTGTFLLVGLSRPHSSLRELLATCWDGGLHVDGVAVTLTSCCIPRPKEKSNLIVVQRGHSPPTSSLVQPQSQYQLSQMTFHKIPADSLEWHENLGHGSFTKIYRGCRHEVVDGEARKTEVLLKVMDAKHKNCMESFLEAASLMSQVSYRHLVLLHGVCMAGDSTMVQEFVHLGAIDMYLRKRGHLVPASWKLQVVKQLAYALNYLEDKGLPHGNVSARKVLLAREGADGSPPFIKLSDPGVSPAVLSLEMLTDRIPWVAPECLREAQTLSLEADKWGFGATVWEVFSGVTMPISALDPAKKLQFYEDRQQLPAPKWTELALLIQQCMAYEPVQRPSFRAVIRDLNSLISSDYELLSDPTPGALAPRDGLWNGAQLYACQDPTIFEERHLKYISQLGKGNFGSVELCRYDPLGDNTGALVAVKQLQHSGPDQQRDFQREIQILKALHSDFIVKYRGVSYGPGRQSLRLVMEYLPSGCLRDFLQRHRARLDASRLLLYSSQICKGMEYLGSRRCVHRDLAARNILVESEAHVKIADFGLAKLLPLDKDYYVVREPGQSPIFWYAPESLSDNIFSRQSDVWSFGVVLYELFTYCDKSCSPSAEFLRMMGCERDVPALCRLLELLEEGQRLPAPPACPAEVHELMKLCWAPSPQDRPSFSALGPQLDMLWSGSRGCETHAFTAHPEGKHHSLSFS
Mitogen-activated protein kinase 8 (Homo sapiens), sequence (P45983 whole entry): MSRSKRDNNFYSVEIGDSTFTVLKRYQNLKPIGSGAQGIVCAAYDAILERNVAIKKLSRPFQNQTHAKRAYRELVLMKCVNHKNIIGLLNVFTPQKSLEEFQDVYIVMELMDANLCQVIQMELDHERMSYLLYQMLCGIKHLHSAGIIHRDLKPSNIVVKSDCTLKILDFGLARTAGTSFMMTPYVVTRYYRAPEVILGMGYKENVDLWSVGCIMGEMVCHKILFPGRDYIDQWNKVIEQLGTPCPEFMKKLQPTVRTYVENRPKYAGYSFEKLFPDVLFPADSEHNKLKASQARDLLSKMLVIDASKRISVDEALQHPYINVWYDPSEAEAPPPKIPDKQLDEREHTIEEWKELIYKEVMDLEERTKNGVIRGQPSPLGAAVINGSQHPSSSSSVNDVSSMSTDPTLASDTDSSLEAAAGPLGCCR

With `CC1=CC(=O)N(Nc2nc(-c3cccs3)nc3scc(-c4cccs4)c23)C1=O`, the half-inhibitory concentration (IC50) in test [1] turned out to be 2.19 µM; in test [2] it was 0.71 µM.

For `CC1=CC(=O)N(Nc2nc(-c3ccccc3)nc3scc(-c4cccs4)c23)C1=O`, the IC50 in test [1] stood at 3.13 µM; in test [2], 1.13 µM.

On to `O=C1c2ccccc2C(=O)N1Nc1ncnc2scc(-c3cccs3)c12`, for which the half-inhibitory concentration (IC50) in test [1] was over 10 µM; in test [3], “Not Active”.

On to `COc1cccc2nc(-c3cccs3)nc(NN3C(=O)C=C(C)C3=O)c12` [AS-602868], for which the figures for the IC50 in [1] and in test [2] were 4.41 µM and 3.32 µM, respectively.

Regarding `COc1ccc(-c2nc(NN3C(=O)C=C(C)C3=O)c3c(-c4cccs4)csc3n2)cc1`, the concentration for half-maximal inhibition (IC50) worked out at 2.79 µM in [1] and 1.39 µM in test [2].

Turning to `CC1=CC(=O)N(Nc2nc(-c3cccs3)nc3scc(-c4cccc(OCCN5CCCCC5)c4)c23)C1=O`, the Activity in test [4] is 112%; in [5] it was 94%; in [6], 96%; in test [7], 74%; in [8], 100%; in test [9], 96%. In addition, the Activity is 84% in test [10]; 93% in [11]; 126% in test [12]; 111% in test [13]; 99% in [14]; 103% in test [15]. Moreover, the Activity in test [16] stood at 81%; in [17] it was 87%; in test [18], 100%; in test [19], 117%; in test [21], 102%; in test [22], 112%. Also, the Activity in test [23] was determined as 98%; in test [24], 96%; in [25] it was 108%; in [26] it was 4%. Moreover, the half-maximal inhibitory concentration (IC50) in test [1] was 2.15 µM; in [20] it was 0.133 µM; in test [2], 2.92 µM.

`CC1=CC(=O)N(Nc2nc(-c3ccco3)nc3scc(-c4cccs4)c23)C1=O`: the half-maximal inhibitory concentration (IC50) in test [1] came to 5.25 µM; in [2], 3.96 µM.

Turning to `CC1=C(C)C(=O)N(Nc2ncnc3scc(-c4cccs4)c23)C1=O`, the IC50 in test [1] is over 10 µM; in test [3], “Not Active”.

Turning to `O=C1c2ccncc2C(=O)N1Nc1ncnc2scc(-c3cccs3)c12`, the IC50 in test [1] was over 10 µM; in test [3] it was “Not Active”.

Regarding `CC1=CC(=O)N(Nc2nc(-c3cccs3)nc3scc(-c4cccc(O)c4)c23)C1=O`, the IC50 in test [1] was 1.23 µM; in test [27] it was “Not Active”; in test [20], 0.488 µM; in [2], 2.67 µM.

For the compound `CC1=CC(=O)N(Nc2nc(C3CC3)nc3scc(-c4cccs4)c23)C1=O`, the figures for the IC50 in test [1] and in [2] were 3.12 µM and 4.35 µM, respectively.

As for `CCOC(=O)Cc1csc2nc(-c3cccs3)nc(NN3C(=O)C=C(C)C3=O)c12`, the half-inhibitory concentration (IC50) in [28] is over 50 µM; in test [1], 5.07 µM; in test [27] it was “Not Active”; in test [20] it was 0.673 µM; in test [2], 5.23 µM.

Regarding `CC1=CC(=O)N(Nc2nc(-c3ccncc3)nc3scc(-c4cccs4)c23)C1=O`, the concentration for half-maximal inhibition (IC50) was 2.11 µM in [1] and over 10 µM in test [2].

For `CC1=CC(=O)N(Nc2nc(-c3cccs3)nc3sccc23)C1=O`, the IC50 was over 50 µM in test [28], 6.98 µM in [1], “Not Active” in test [27] and 8.95 µM in [2].

As for `O=C1C=CC(=O)N1Nc1ncnc2scc(-c3cccs3)c12`, the results for the IC50 in test [1] and in test [3] were over 10 µM and “Not Active”, respectively.

`CC1=CC(=O)N(Nc2nc(-c3cccs3)nc3scc(-c4ccc(O)cc4)c23)C1=O`: the IC50 in test [1] was 0.82 µM; in [27] it was “Not Active”; in [20], 0.75 µM; in test [2], 1.32 µM.

`CC1=CC(=O)N(Nc2nc(-c3cccs3)nc3scc(-c4ccc(OCCN5CCCCC5)cc4)c23)C1=O.Cl`: the half-inhibitory concentration (IC50) in [1] is 1.68 µM; in test [27], “Not Active”; in test [20], 0.085 µM; in [2], 2.14 µM.

Consider `CC1=CC(=O)N(Nc2ncnc3scc(-c4cccs4)c23)C1=O`, for which the values for the IC50 in [1] and in test [2] were 2.49 µM and over 10 µM, respectively.

With `COc1cccc(-c2nc(NN3C(=O)C=C(C)C3=O)c3c(-c4cccs4)csc3n2)c1`, the IC50 was found to be 3.47 µM in test [1] and 1.24 µM in test [2].

A word on the IC50: it is the concentration needed to halve the response being measured.
